{"source": "patent US12649722B2", "about": "“Herbicidal cinnoline derivatives” (SYNGENTA CROP PROTECTION AG, priority 2020, dated 2026)", "assay_type_in_all_cases": "in vivo", "key": {"Solarium nigrum (SOLNI) [1]": {"test_system": "Solarium nigrum (SOLNI)", "assay": "Post-emergence Test, SOLNI", "details": "sprayed after 8 days cultivation, 1000 g/ha, evaluated after 13 days", "procedure": "(§1) Seeds of a variety of test species are sown in standard soil in pots (Amaranthus retoflexus (AMARE), Solarium nigrum (SOLNI), Setaria faberi (SETFA), Lolium perenne (LOLPE), Echinochloa crus-galli (ECHCG), Ipornoea hederacea (IPOHE)). After 8 days cultivation under controlled conditions in a glasshouse (at 24° C./16° C., day/night; 14 hours light; 65% humidity), the plants are sprayed with an aqueous spray solution derived from the formulation of the technical active ingredient in acetone/water (50:50) solution containing 0.5% Tween 20 (polyoxyethylene sorbitan monolaurate, CAS RN 9005-64-5). Compounds are applied at 1000 g/ha unless otherwise stated. The test plants are then grown in a glasshouse under controlled conditions in a glasshouse (at 24° C./16° C., day/night; 14 hours light; 65% humidity) and watered twice daily. After 13 days the test is evaluated for the percentage damage caused to the plant. The biological activities are shown in the following table on a five-point scale (5=81-100%; 4=61-80%; 3=41-60%; 2=21-40%; 1=10-20%; 0=0%; −=not tested)."}, "Setaria faberi (SETFA) [2]": {"test_system": "Setaria faberi (SETFA)", "assay": "Pre-emergence Test, SETFA", "details": "1000 g/ha, evaluated after 13 days"}, "Solarium nigrum (SOLNI) [3]": {"test_system": "Solarium nigrum (SOLNI)", "assay": "Pre-emergence Test, SOLNI", "details": "1000 g/ha, evaluated after 13 days"}, "[4]": {"test_system": "Ipornoea hederacea (IPOHE)", "assay": "Post-emergence Test, IPOHE", "details": "sprayed after 8 days cultivation, 1000 g/ha, evaluated after 13 days", "outline": "(§2)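 Pots sown with AMARE, SOLNI, SETFA, LOLPE, ECHCG, IPOHE, kept in glasshouse (24/16 °C, 14 h light, 65% humidity), sprayed at 1000 g/ha unless stated, in acetone/water 50:50 with 0.5% Tween 20. Damage scored after 13 days on a 0–5 scale (5=81–100%, 0=0%).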"}, "[5]": {"test_system": "Ipornoea hederacea (IPOHE)", "assay": "Pre-emergence Test, IPOHE", "details": "1000 g/ha, evaluated after 13 days"}, "ZEAMX [6]": {"test_system": "ZEAMX", "assay": "Pre-emergence Test, ZEAMX", "details": "1000 g/ha, evaluated after 13 days"}, "[7]": {"test_system": "Amaranthus retoflexus (AMARE)", "assay": "Post-emergence Test, AMARE", "details": "sprayed after 8 days cultivation, 1000 g/ha, evaluated after 13 days", "outline": "as §2"}, "ABUTH [8]": {"test_system": "ABUTH", "assay": "Post-emergence Test, ABUTH", "details": "sprayed after 8 days cultivation, 1000 g/ha, evaluated after 13 days"}, "Setaria faberi (SETFA) [9]": {"test_system": "Setaria faberi (SETFA)", "assay": "Post-emergence Test, SETFA", "details": "sprayed after 8 days cultivation, 1000 g/ha, evaluated after 13 days", "outline": "as §2"}, "ZEAMX [10]": {"test_system": "ZEAMX", "assay": "Post-emergence Test, ZEAMX", "details": "sprayed after 8 days cultivation, 1000 g/ha, evaluated after 13 days"}, "[11]": {"test_system": "Echinochloa crus-galli (ECHCG)", "assay": "Pre-emergence Test, ECHCG", "details": "1000 g/ha, evaluated after 13 days"}, "ABUTH [12]": {"test_system": "ABUTH", "assay": "Pre-emergence Test, ABUTH", "details": "1000 g/ha, evaluated after 13 days"}, "Lolium perenne (LOLPE) [13]": {"test_system": "Lolium perenne (LOLPE)", "assay": "Pre-emergence Test, LOLPE", "details": "1000 g/ha, evaluated after 13 days"}, "[14]": {"test_system": "Echinochloa crus-galli (ECHCG)", "assay": "Post-emergence Test, ECHCG", "details": "sprayed after 8 days cultivation, 1000 g/ha, evaluated after 13 days", "outline": "as §2"}, "Lolium perenne (LOLPE) [15]": {"test_system": "Lolium perenne (LOLPE)", "assay": "Post-emergence Test, LOLPE", "details": "sprayed after 8 days cultivation, 1000 g/ha, evaluated after 13 days", "procedure": "as §1"}, "[16]": {"test_system": "Amaranthus retoflexus (AMARE)", "assay": "Pre-emergence Test, AMARE", "details": "1000 g/ha, evaluated after 13 days"}}}
{"smiles": "COC(=O)c1nn(-c2ccc(OC(F)(F)F)cc2)c2cccc(C(C)=O)c2c1=O", "note": "[Compound P9, methyl 5-acetyl-4-oxo-1-[4-(trifluoromethoxy)phenyl] cinnoline-3-carboxylate]", "values": [{"measurement": "percentage damage caused to the plant, SOLNI", "setting": "Solarium nigrum (SOLNI) [1]", "result": "4 (4=61-80%)"}, {"measurement": "percentage damage caused to the plant, SETFA", "setting": "Setaria faberi (SETFA) [2]", "result": "5 (5=81-100%)"}, {"measurement": "percentage damage caused to the plant, SOLNI", "setting": "Solarium nigrum (SOLNI) [3]", "result": "3 (3=41-60%)"}, {"measurement": "percentage damage caused to the plant, IPOHE", "setting": "[4]", "result": "2 (2=21-40%)"}, {"measurement": "percentage damage caused to the plant, IPOHE", "setting": "[5]", "result": "3 (3=41-60%)"}, {"measurement": "percentage damage caused to the plant, ZEAMX", "setting": "ZEAMX [6]", "result": "4 (4=61-80%)"}, {"measurement": "percentage damage caused to the plant, AMARE", "setting": "[7]", "result": "1 (1=10-20%)"}, {"measurement": "percentage damage caused to the plant, ABUTH", "setting": "ABUTH [8]", "result": "3 (3=41-60%)"}, {"measurement": "percentage damage caused to the plant, SETFA", "setting": "Setaria faberi (SETFA) [9]", "result": "4 (4=61-80%)"}, {"measurement": "percentage damage caused to the plant, ZEAMX", "setting": "ZEAMX [10]", "result": "4 (4=61-80%)"}, {"measurement": "percentage damage caused to the plant, ECHCG", "setting": "[11]", "result": "5 (5=81-100%)"}, {"measurement": "percentage damage caused to the plant, ABUTH", "setting": "ABUTH [12]", "result": "3 (3=41-60%)"}, {"measurement": "percentage damage caused to the plant, LOLPE", "setting": "Lolium perenne (LOLPE) [13]", "result": "4 (4=61-80%)"}, {"measurement": "percentage damage caused to the plant, ECHCG", "setting": "[14]", "result": "4 (4=61-80%)"}, {"measurement": "percentage damage caused to the plant, LOLPE", "setting": "Lolium perenne (LOLPE) [15]", "result": "4 (4=61-80%)"}, {"measurement": "percentage damage caused to the plant, AMARE", "setting": "[16]", "result": "1 (1=10-20%)"}]}
{"smiles": "C=C(OCC)c1cccc2c1c(=O)c(C(=O)OC)nn2-c1ccc(OC(F)(F)F)cc1", "note": "[Compound P3, methyl 5-(1-ethoxyvinyl)-4-oxo-1-[4-(trifluoromethoxy)phenyl] cinnoline-3-carboxylate]", "values": [{"measurement": "percentage damage caused to the plant, SOLNI", "setting": "Solarium nigrum (SOLNI) [1]", "result": "4 (4=61-80%)"}, {"measurement": "percentage damage caused to the plant, SETFA", "setting": "Setaria faberi (SETFA) [2]", "result": "5 (5=81-100%)"}, {"measurement": "percentage damage caused to the plant, SOLNI", "setting": "Solarium nigrum (SOLNI) [3]", "result": "2 (2=21-40%)"}, {"measurement": "percentage damage caused to the plant, IPOHE", "setting": "[4]", "result": "3 (3=41-60%)"}, {"measurement": "percentage damage caused to the plant, IPOHE", "setting": "[5]", "result": "2 (2=21-40%)"}, {"measurement": "percentage damage caused to the plant, ZEAMX", "setting": "ZEAMX [6]", "result": "4 (4=61-80%)"}, {"measurement": "percentage damage caused to the plant, AMARE", "setting": "[7]", "result": "1 (1=10-20%)"}, {"measurement": "percentage damage caused to the plant, ABUTH", "setting": "ABUTH [8]", "result": "3 (3=41-60%)"}, {"measurement": "percentage damage caused to the plant, SETFA", "setting": "Setaria faberi (SETFA) [9]", "result": "4 (4=61-80%)"}, {"measurement": "percentage damage caused to the plant, ZEAMX", "setting": "ZEAMX [10]", "result": "3 (3=41-60%)"}, {"measurement": "percentage damage caused to the plant, ECHCG", "setting": "[11]", "result": "4 (4=61-80%)"}, {"measurement": "percentage damage caused to the plant, ABUTH", "setting": "ABUTH [12]", "result": "3 (3=41-60%)"}, {"measurement": "percentage damage caused to the plant, LOLPE", "setting": "Lolium perenne (LOLPE) [13]", "result": "4 (4=61-80%)"}, {"measurement": "percentage damage caused to the plant, ECHCG", "setting": "[14]", "result": "4 (4=61-80%)"}, {"measurement": "percentage damage caused to the plant, LOLPE", "setting": "Lolium perenne (LOLPE) [15]", "result": "4 (4=61-80%)"}, {"measurement": "percentage damage caused to the plant, AMARE", "setting": "[16]", "result": "0 (0=0%)"}]}
{"smiles": "N#Cc1cccc2c1c(=O)c(C(=O)O)nn2-c1ccc(OC(F)(F)F)cc1", "note": "[Compound P8, 5-cyano-4-oxo-1-[4-(trifluoromethoxy)phenyl] cinnoline-3-carboxylic acid]", "values": [{"measurement": "percentage damage caused to the plant, SOLNI", "setting": "Solarium nigrum (SOLNI) [1]", "result": "3 (3=41-60%)"}, {"measurement": "percentage damage caused to the plant, SETFA", "setting": "Setaria faberi (SETFA) [2]", "result": "5 (5=81-100%)"}, {"measurement": "percentage damage caused to the plant, SOLNI", "setting": "Solarium nigrum (SOLNI) [3]", "result": "1 (1=10-20%)"}, {"measurement": "percentage damage caused to the plant, IPOHE", "setting": "[4]", "result": "4 (4=61-80%)"}, {"measurement": "percentage damage caused to the plant, IPOHE", "setting": "[5]", "result": "1 (1=10-20%)"}, {"measurement": "percentage damage caused to the plant, ZEAMX", "setting": "ZEAMX [6]", "result": "0 (0=0%)"}, {"measurement": "percentage damage caused to the plant, AMARE", "setting": "[7]", "result": "4 (4=61-80%)"}, {"measurement": "percentage damage caused to the plant, ABUTH", "setting": "ABUTH [8]", "result": "1 (1=10-20%)"}, {"measurement": "percentage damage caused to the plant, SETFA", "setting": "Setaria faberi (SETFA) [9]", "result": "4 (4=61-80%)"}, {"measurement": "percentage damage caused to the plant, ZEAMX", "setting": "ZEAMX [10]", "result": "2 (2=21-40%)"}, {"measurement": "percentage damage caused to the plant, ECHCG", "setting": "[11]", "result": "5 (5=81-100%)"}, {"measurement": "percentage damage caused to the plant, ABUTH", "setting": "ABUTH [12]", "result": "1 (1=10-20%)"}, {"measurement": "percentage damage caused to the plant, LOLPE", "setting": "Lolium perenne (LOLPE) [13]", "result": "4 (4=61-80%)"}, {"measurement": "percentage damage caused to the plant, ECHCG", "setting": "[14]", "result": "4 (4=61-80%)"}, {"measurement": "percentage damage caused to the plant, LOLPE", "setting": "Lolium perenne (LOLPE) [15]", "result": "4 (4=61-80%)"}, {"measurement": "percentage damage caused to the plant, AMARE", "setting": "[16]", "result": "2 (2=21-40%)"}]}
